Results on two compounds are retold here after US7199161B2, “Substituted bicylo[3.3.1]nonan-2,4,9-triones as pharmaceutical active ingredients” (Diagenics International Corporation, priority 2002, dated 2007).

For one series, the target named is Taq polymerase (Thermus aquaticus, UniProt P19821). Kind of series: TSR8 template control experiment (DNA polymerase). It counts as biochemical. The conditions noted are these: maximum concentration 50 μg/ml. How it is done:
In order to ensure the effect of substance (Ic′) on telomerase, an effect of substance (Ic′) on DNA polymerase must be ruled out. In a preliminary experiment with TSR8 as internal control, the effect of substance (Ic′) at various concentration levels was ruled out.
Amplification of the TSR8 template depends only on DNA polymerase. Every inhibitor of this enzyme can be detected using the substrate.
The experiment is carried out in triplicates.

The next series addresses T1, human telomerase (Homo sapiens, UniProt O14746).
T1 construct: human telomerase obtained from cells of a colon carcinoma (HCT8 WT); endogenous in cells; host or cells: HCT8 WT colon carcinoma cells
Briefly: Telomeric Repeat Amplification Assay (TRAP) ELISA. The series is classed as biochemical. Particulars: at 50 μg/ml; telomerase from HCT8 WT cells; range 10 to 50 μg/ml tested. How it is done: The effect of substance (Ic′) on human telomerase is determined by carrying out the so-called Telomeric Repeat Amplification Assay (TRAP) ELISA, based on the method of N. W. Kim et al.
This method is based on use of the polymerase chain reaction (PCR). This entails, in a first step, a number of (GGTTAG) motifs being attached by means of the telomerase activity to the 3′ end of a biotin-labeled oligonucleotide (TS=telomerase substrate). In a second step, the products extended in this way are amplified by the PCR technique using TS and RP (R=reverse) primers. In this way, a “ladder” of products in increments of 6 bases (initial size=50 nucleotides) is generated. During the amplification, DNP-labeled dCTP is incorporated into the PCR products. Detection and quantification of the synthesized telomerase products using a sandwich ELISA method are a measure of the telomerase enzymatic activity.
The telomerase products carry the biotin-labeled TS primers and bind to the surface of microtiter plates previously coated with streptavidin. An anti-DIG antibody conjugated to POD binds to the […] nucleotides incorporated during the amplification. After addition of the substrate TMB, the telomerase activity is visualized by […] via the onset of the color reaction by the enzyme POD. In this case, the measured absorption is directly proportional to the telomerase activity. […]
Background: ELISA stands for enzyme-linked immunosorbent assay.

The test system of series [1] is tumor cell lines (native and resistant subclones) and non-tumor cell lines.
Description: (§5) Six unambiguously characterized tumor cell lines of human origin (native cell lines and those converted into resistant subclones) and two non-tumor cell lines are used for further investigations (table 2).
(§6) The sensitivity of the cell lines to the substance (Ic′) is determined in a so-called sulforhodamine B (SRB) assay.
(§7) The concentration of substance (Ic′) which inhibits cell growth by 50% (IC50, determined from semilogarithmic dose versus effect plots) are indicated.
Series [2] deals with HCT8 WT bowel cancer cells. Kind of series: Cell cycle analysis by flow cytometry (BrdU/PI). The series is classed as cell-based, human. Particulars: IC50 concentration, 24 hours. How it is done:
Flow cytometric investigations by an adapted method of Tsugita M. et al. are used for the analysis.
Exponentially growing HCT8 WT bowel cancer cells are treated with substance (Ic′) with the determined IC50 concentration for 24 hours, and then the cells are incubated with BrdU. The cells fixed with methanol are subjected to a treatment with a detergent (Triton X-100/HCl) in order to denature the DNA strands. After incubation with the fluorescence-labeled antibody (anti-BrdU mAb, FITC-labeled), the second fluorescent dye (PI, propidium iodide) is added.
The DNA content (propidium iodide fluorescence) and the amount of BrdU taken up (FITC fluorescence) are determined using a Coulter flow cytometer (Coulter EPICS XL). Exemplary results are depicted in FIG. 3a and 3b.
FIG. 3a and 3b show BrdU and PI uptakes into the DNA of HCT8 WT cells, untreated (control, […]) and treated with substance (Ic′) (IC50, 24 hours, FIG. 4b). The depicted results are representative of n=3 independent experiments.

In series [3] the test system is MCR-5 diploid embryonic lung fibroblasts. Kind of series: SRB assay, MCR-5. Particulars: MCR-5 fibroblasts (non-tumor). It counts as cell-based.
Description: as §5, §6, §7
For series [4], the system named is A2780 DX5 cells (doxorubicin resistant gp 170+). Briefly: SRB assay, A2780 DX5. The series is classed as cell-based, human. Particulars: A2780 DX5, doxorubicin resistant gp 170+. In general terms: Sulforhodamine B stains cellular protein and so reports cell mass.
Description: as §5, §6, §7
Series [5] has as its system HCT8 SN38 cells (SN38 resistant). Briefly: SRB assay, HCT8 SN38. The series is classed as cell-based, human.
Description: as §6, §7
The target of another series is T2, topoisomerase I (Homo sapiens, UniProt P11387).
T2 construct: 160 ng of cell nucleus extract with the topoisomerase I present therein; endogenous in cells; host or cells: tumor cell lines (cell nucleus extract)
T2 sequence (P11387 1-765): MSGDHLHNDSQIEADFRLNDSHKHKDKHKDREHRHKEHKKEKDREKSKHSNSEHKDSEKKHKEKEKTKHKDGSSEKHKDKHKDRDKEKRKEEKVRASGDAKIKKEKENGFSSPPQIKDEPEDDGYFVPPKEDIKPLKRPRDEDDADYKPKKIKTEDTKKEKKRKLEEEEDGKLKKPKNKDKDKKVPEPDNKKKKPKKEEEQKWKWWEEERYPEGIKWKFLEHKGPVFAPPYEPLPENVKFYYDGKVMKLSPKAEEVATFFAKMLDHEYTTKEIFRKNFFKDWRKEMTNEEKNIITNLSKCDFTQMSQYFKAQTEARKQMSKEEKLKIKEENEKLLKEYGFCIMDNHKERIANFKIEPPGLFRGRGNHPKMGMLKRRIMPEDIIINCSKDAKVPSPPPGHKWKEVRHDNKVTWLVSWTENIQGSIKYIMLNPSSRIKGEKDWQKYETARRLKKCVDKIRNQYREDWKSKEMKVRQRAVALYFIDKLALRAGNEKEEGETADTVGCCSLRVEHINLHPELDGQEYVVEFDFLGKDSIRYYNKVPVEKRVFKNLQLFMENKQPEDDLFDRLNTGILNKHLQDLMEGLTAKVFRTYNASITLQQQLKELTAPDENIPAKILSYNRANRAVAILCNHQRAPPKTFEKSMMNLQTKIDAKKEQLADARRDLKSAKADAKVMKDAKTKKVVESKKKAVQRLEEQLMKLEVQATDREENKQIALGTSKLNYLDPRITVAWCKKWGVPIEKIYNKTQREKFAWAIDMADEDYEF
Kind of series: Topo I unwinding assay (pBR322 plasmid DNA, cell nucleus extract). It counts as biochemical. The conditions noted are these: for concentration for in vitro topoisomerase I inhibition as multiple of the IC50 of tumor growth: multiple of the concentration inhibiting tumor cell growth by 50%. The source says:
The effect of the substance (Ic′) on topoisomerase I is investigated by carrying out the so-called Topo I unwinding assay. The assay is based on an ATP-independent unwinding of twisted pBR322 plasmid DNA dimers by topoisomerase I. The two different topological forms of the plasmid DNA, the twisted form and unwound, relaxed form, are separated in this investigation by means of an agarose gel. The enzyme topoisomerase I is obtained for this purpose from cell nucleus extracts of the tumor cell lines.
Cell nucleus extracts are obtained by the method of Sullivan with the modifications of Danks et al.

For series [6], the system named is ERK1/2 protein (MAP kinase). Kind of series: Western blot analysis of ERK1/2 phosphorylation. It counts as cell-based, human. The conditions noted are these: HCT8 WT, detectable even at a dose corresponding to the IC50. An excerpt:
Phosphorylation of certain signal transduction pathways plays an essential role in the regulation of cell growth and gene expression. The protein ERK1/2 (MAP kinase) belongs to the MAP kinase signal transduction pathway.
Treatment of human colon carcinoma cells (HCT8 WT) with substance (Ic′) leads to phosphorylation of this protein, which is detected in a Western blot analysis (FIG. 8).

The test system of series [7] is MCF-7 AD cells (doxorubicin resistant gp 170+). Briefly: SRB assay, MCF-7 AD. The series is classed as cell-based, human.
Description: as §5, §6, §7
For series [8], the system named is HT29 24R cells (5-FU resistant). Briefly: SRB assay, HT29 24R. It counts as cell-based, human.
Description: as §6, §7
For series [9], the system named is MCF-7 24R cells (5-FU resistant). Briefly: SRB assay, MCF-7 24R. The series is classed as cell-based, human.
Description: as §5, §6, §7
Series [10] deals with HCT8 WT cells (carcinoma of colon). Briefly: SRB assay, HCT8 WT. It counts as cell-based, human. The source says: The target cell used is, inter alia, a bowel cancer cell line of human origin (HCT8 WT).
In series [11] the test system is MCF-7 WT cells (adenocarcinoma of breast). Briefly: SRB assay, MCF-7 WT. It counts as cell-based, human.
Description: as §6, §7
The subject of series [12] is M51 WT cells (carcinoma of stomach). Briefly: SRB assay, M51 WT. It counts as cell-based, human. The conditions noted are these: mean ± SD of at least three experiments.
Description: as §5, §6, §7
In series [13] the test system is A2780 WT cells (adenocarcinoma of ovary). Briefly: SRB assay, A2780 WT. The series is classed as cell-based, human.
Description: as §5, §6, §7
Series [14] concerns HCT8 WT colon carcinoma cells.
Description: In this case, tumor cells, e.g. colon carcinoma cells (HCT8 WT), are coincubated with both active ingredients in different dosages in each case for 24 hours (FIG. 9). FIG. 9 represents the coincubation experiment on the cytotoxicity with substance (Ic′) and a specific ERK1/2 inhibitor (MAP kinase inhibitor). HCT8 WT cells were coincubated. The points shown indicate the corresponding ratios (% of the respective IC50 concentration) of the two active ingredients to one another.
Series [15] deals with A2780 CP2 cells (cisplatin resistant). Briefly: SRB assay, A2780 CP2. It counts as cell-based, human.
Description: as §5, §6, §7
Series [16] relates to H460 WT cells (large-cell lung carcinoma). Kind of series: SRB assay, H460 WT. It counts as cell-based, human.
Description: as §5, §6, §7
Series [17] has as its system HT29 WT colorectal carcinoma cells. Kind of series: DNA double-strand breaks, HT29 WT. The series is classed as cell-based, human. How it is done: (§1) DNA isolated after treatment of the cells for various times with substance (Ic′) is for this purpose analyzed by gel electrophoresis.
(§2) Determination of the DNA double-strand breaks is performed on ^14C-labeled DNA. For this purpose, [^14C]d-thymidine-labeled cells are treated with various concentrations of substance (Ic′). The DNA is isolated by an adapted method of Chia Chiao et al.
(§3) The DNA fractionated by gel electrophoresis is subsequently stained with ethidium bromide.
(§4) On a transilluminator (302 nm), the intact DNA which has not migrated in the electric field is separated from the fragmented DNA, which has thus migrated into the gel, by extraction. The isolated gel and DNA fragments are liquefied at +80° C. in the presence of hydrochloric acid. After addition of a scintillator it is possible to determine the radioactivity using a liquid scintillation meter (TPI-CARB 2100RT). The measured radioactivity is indicated in […] (cpm).

Series [18] relates to H460 WT bronchial carcinoma cells. Briefly: DNA double-strand breaks in [14C]d-thymidine-labeled cells, H460 WT. The series is classed as cell-based, human. Particulars: up to 10 times the IC50 concentration, 6 hours. The protocol:
as §1, §2, §3, §4
The results represent averages and their standard deviation from n=3 independent experiments.

The subject of series [19] is HT29 SN38 cells (SN38 resistant). Kind of series: SRB assay, HT29 SN38. It counts as cell-based, human.
Description: as §6, §7
Series [20] relates to HCT8 ICID cells (raltitrexed resistant). Briefly: SRB assay, HCT8 ICID. The series is classed as cell-based, human.
Description: as §6, §7
Series [21] has as its system HT29 WT cells (adenocarcinoma of colon). Kind of series: SRB assay, HT29 WT. The series is classed as cell-based, human.
Description: as §6, §7
The subject of series [22] is M51 DDP cells (cisplatin resistant). Briefly: SRB assay, M51 DDP. The series is classed as cell-based, human.
Description: as §6, §7
For another series, the system named is 3T3 mouse fibroblasts. Briefly: SRB assay, 3T3. It counts as cell-based. Particulars: 3T3 mouse fibroblasts (non-tumor).

Sequence of Taq polymerase (P19821 whole entry): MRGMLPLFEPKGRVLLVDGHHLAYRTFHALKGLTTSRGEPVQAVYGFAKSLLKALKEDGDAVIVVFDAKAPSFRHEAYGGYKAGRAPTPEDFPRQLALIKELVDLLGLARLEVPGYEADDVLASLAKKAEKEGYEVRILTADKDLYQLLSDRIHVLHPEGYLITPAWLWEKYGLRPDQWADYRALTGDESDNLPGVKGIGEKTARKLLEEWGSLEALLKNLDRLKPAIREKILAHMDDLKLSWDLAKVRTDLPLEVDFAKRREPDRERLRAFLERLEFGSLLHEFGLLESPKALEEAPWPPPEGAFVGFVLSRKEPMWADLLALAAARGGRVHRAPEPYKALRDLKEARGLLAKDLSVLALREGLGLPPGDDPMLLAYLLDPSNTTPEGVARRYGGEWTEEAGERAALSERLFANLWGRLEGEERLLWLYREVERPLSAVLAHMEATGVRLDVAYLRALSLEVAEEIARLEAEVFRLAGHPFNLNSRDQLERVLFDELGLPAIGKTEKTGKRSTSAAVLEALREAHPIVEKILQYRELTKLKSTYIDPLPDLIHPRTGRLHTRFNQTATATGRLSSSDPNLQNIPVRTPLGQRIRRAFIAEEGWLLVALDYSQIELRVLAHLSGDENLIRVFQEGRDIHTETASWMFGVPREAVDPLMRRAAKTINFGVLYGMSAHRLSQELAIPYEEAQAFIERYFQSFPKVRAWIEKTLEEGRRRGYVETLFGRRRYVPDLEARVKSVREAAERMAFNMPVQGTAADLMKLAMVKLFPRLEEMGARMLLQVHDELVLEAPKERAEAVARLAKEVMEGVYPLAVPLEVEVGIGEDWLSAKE
T1 sequence (O14746 whole entry): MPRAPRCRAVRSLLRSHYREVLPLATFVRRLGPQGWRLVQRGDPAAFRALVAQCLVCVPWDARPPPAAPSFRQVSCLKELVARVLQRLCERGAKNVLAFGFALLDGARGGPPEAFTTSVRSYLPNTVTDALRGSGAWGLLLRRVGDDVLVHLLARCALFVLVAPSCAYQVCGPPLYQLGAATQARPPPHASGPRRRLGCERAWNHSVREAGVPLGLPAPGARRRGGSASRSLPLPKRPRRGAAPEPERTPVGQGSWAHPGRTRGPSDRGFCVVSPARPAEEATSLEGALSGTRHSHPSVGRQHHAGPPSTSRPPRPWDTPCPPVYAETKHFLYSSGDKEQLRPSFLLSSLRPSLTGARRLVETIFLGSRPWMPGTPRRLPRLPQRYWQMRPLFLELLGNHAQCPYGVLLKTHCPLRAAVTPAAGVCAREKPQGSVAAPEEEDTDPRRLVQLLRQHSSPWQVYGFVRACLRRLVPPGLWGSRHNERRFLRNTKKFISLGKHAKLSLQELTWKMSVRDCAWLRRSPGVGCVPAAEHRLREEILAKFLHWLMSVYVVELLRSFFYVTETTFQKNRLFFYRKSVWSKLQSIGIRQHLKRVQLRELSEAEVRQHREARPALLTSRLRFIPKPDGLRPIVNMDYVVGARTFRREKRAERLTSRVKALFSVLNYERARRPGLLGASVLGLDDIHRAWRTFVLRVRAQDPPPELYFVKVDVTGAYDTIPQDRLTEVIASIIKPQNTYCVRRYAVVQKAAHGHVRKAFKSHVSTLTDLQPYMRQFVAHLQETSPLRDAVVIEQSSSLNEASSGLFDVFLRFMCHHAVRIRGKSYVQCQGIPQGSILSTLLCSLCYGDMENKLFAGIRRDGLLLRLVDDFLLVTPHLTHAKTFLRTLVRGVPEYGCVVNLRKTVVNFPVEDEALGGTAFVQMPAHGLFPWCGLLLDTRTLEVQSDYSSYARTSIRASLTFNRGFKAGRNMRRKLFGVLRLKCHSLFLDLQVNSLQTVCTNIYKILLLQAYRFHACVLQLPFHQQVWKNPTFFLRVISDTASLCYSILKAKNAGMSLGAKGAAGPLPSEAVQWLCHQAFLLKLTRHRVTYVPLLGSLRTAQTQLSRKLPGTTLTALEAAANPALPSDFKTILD
T1 sequence (O60832 whole entry partner): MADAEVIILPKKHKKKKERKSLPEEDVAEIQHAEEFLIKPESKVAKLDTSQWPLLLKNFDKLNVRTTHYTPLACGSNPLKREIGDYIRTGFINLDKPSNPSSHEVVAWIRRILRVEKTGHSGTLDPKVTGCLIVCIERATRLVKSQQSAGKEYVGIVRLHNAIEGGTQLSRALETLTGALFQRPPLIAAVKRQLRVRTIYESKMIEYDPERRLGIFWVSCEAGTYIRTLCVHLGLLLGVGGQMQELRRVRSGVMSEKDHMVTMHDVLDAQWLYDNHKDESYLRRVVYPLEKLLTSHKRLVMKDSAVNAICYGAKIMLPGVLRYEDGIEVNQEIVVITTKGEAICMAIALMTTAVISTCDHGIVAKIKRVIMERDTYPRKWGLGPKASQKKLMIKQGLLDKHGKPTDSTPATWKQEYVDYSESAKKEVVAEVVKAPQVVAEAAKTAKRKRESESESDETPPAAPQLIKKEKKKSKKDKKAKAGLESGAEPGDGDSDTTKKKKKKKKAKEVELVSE
T1 sequence (Q9NX24 whole entry partner): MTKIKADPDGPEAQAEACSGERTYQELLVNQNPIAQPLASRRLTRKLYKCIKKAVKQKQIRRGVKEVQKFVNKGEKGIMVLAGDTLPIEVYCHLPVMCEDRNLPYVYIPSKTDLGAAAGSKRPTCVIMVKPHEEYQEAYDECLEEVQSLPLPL
T1 sequence (Q9NPE3 whole entry partner): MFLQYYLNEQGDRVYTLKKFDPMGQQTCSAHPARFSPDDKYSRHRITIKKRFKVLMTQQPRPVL
T1 sequence (Q9NY12 whole entry partner): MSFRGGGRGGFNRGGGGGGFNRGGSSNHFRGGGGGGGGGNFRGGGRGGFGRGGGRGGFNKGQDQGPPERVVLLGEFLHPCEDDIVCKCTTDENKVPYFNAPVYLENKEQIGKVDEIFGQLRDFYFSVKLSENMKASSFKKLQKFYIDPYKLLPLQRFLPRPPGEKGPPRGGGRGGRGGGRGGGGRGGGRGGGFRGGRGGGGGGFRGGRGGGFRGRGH
T1 sequence (Q9BUR4 whole entry partner): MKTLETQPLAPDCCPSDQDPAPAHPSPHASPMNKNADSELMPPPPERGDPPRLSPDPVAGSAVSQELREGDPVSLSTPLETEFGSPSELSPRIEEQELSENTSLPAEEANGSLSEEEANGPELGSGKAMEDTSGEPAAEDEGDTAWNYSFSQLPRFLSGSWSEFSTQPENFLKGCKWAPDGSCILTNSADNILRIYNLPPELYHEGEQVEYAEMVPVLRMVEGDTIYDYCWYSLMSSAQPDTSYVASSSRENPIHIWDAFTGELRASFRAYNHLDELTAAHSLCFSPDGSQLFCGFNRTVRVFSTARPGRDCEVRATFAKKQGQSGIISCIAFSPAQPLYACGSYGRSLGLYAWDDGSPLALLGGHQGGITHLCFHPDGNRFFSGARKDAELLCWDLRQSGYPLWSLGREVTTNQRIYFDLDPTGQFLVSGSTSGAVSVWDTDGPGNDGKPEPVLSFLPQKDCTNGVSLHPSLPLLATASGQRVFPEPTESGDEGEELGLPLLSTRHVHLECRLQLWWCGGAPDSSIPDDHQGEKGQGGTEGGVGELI
Description for 3T3 mouse fibroblasts: as §5, §6, §7

Regarding “1-Benzoyl-8,8-dimethyl-2-hydroxy-3,5,7-tris-(3-methyl-2-butenyl)bicyclo[3.3.1]non-2-ene-4,9-dione [Substance (Ic′)]”, at Taq polymerase, the “inhibition of Taq polymerase (TSR8 template)” value is “does not lead to a significant inhibition”. On human telomerase, the “inhibition of human telomerase” value is “Complete inhibition”. Besides, in series [1], the “cytotoxicity for the non-tumor cell lines compared with tumor cell lines” value was “considerably less”. For the same compound, the “cross-resistance to the indicated cytostatics” value in [1] (resistant subclones vs native cell lines, SRB assay) is listed as “no cross-resistance”. For the same compound, the “effect on the cell cycle (BrdU uptake)” value in [2] was “inhibition of the synthesis phase”. For the same compound, the 50% inhibitory concentration (IC50) in series [3] was determined as 21.73 ± 6.47 µg/mL; in series [4], 6.75 ± 1.55 µg/mL; in series [5] it was 4.07 ± 0.08 µg/mL; in series [7], 4.28 ± 0.08 µg/mL; in series [8], 5.18 ± 0.76 µg/mL; in series [9], 3.30 ± 0.51 µg/mL. Moreover, the “IC50” value worked out at 4.23 ± 0.19 µg/mL in [10]; 4.37 ± 0.12 µg/mL in [11]; 5.70 ± 0.21 µg/mL in series [12]; 9.20 ± 0.82 µg/mL in [13]; 6.23 ± 0.12 µg/mL in series [15]; 4.21 ± 0.91 µg/mL in series [16]. Moreover, the “IC50” value was 3.50 ± 1.40 µg/mL in series [19]; 4.44 ± 0.13 µg/mL in series [20]; 5.25 ± 0.43 µg/mL in [21]; 4.77 ± 0.13 µg/mL in [22]; above 80.0 µg/mL with 3T3 mouse fibroblasts. In addition, the “inhibition of topoisomerase I activity” value at topoisomerase I (at 100 μg/ml, 160 ng cell nucleus extract) is on record as 100%. In addition, on topoisomerase I, the “concentration for in vitro topoisomerase I inhibition as multiple of the IC50 of tumor growth” value was found to be 20 times. For the same compound, in series [6], the “phosphorylation of the ERK1/2 protein” value was “dose-dependent phosphorylation”. In addition, the “cytotoxicity on coincubation with a specific ERK1/2 inhibitor (MAP kinase inhibitor)” value in [14] is “pronounced synergism”. The “effect of the combination on tumor cell growth” value in series [14] (30% of IC50 of substance (Ic′) with 30% of IC50 of the specific ERK1/2 inhibitor, HCT8 WT) is reported as “inhibition of growth”. For the same compound, the “induction of DNA double-strand breaks” value in series [17] is reported as “induction of substantial amounts of double-strand breaks”; in [18], “induces significant amounts of double-strand breaks”.

As to `CC[C@@]1(O)C(=O)OCc2c1cc1n(c2=O)Cc2cc3c(CN(C)C)c(O)ccc3nc2-1` [topotecan, reference compound], the “concentration for in vitro topoisomerase I inhibition as multiple of the IC50 of tumor growth” value on topoisomerase I is on record as 1000 times.

In general, IC50 refers to the concentration that gives 50% inhibition.
